Results taken from US12077503B2, “Substituted cyclic amides and their use as herbicides” (FMC CORPORATION, priority 2015, dated 2024).

What was measured:
Assay type in all cases: in vivo
[1] = tested on: redroot pigweed (Amaranthus retroflexus); assay: Test G Pre-Emergence Protocol; settings: Amaranthus retroflexus, pre-emergence, 312 h, evaluated after 13 days; for pest or weed control at 15.625 g/ha: 15.625 g ai/ha; for pest or weed control at 15.625 g/ha / pest or weed control at 250 g/ha: read-out: Pigweed, Redroot damage rating (100=total damage to plant; 0=no damage to plant); for pest or weed control at 62.5 g/ha: 62.5 g ai/ha, 100=total damage to plant, 0=no damage to plant, read-out: plant damage rating, Pigweed, Redroot; for pest or weed control at 250 g/ha: 250 g ai/ha
In short: (§1)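 Seeds were sown in standard soil and kept one day in a glasshouse (24/16° C day/night, 14 h light, 65% humidity), then sprayed with compound in acetone/water (50:50) containing 0.5% Tween 20 at 15.625, 62.5 or 250 g/ha. Damage was scored after 13 days (0 = none, 100 = total).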

corn (Zea mays) [2] = assay: Test G Pre-Emergence Protocol; settings: Zea mays, pre-emergence, 312 h, evaluated after 13 days; for plant injury at 15.625 g/ha: 15.625 g ai/ha; for plant injury at 15.625 g/ha / plant injury at 250 g/ha: read-out: Corn damage rating (100=total damage to plant; 0=no damage to plant); for plant injury at 62.5 g/ha: 62.5 g ai/ha, 100=total damage to plant, 0=no damage to plant, read-out: plant damage rating, Corn; for plant injury at 250 g/ha: 250 g ai/ha
In short: as §1

[3] = tested on: giant foxtail (Setaria faberi); assay: Test G Pre-Emergence Protocol; settings: Setaria faberi, pre-emergence, 312 h, evaluated after 13 days; for pest or weed control at 15.625 g/ha: 15.625 g ai/ha; for pest or weed control at 15.625 g/ha / pest or weed control at 250 g/ha: read-out: Foxtail, Giant damage rating (100=total damage to plant; 0=no damage to plant); for pest or weed control at 62.5 g/ha: 62.5 g ai/ha, 100=total damage to plant, 0=no damage to plant, read-out: plant damage rating, Foxtail, Giant; for pest or weed control at 250 g/ha: 250 g ai/ha
In short: as §1

[4] = tested on: barnyardgrass (Echinochloa crus-galli); assay: Test G Pre-Emergence Protocol; settings: Echinochloa crus-galli, pre-emergence, 312 h, evaluated after 13 days; for pest or weed control at 15.625 g/ha: 15.625 g ai/ha, read-out: Barnyard grass damage rating (100=total damage to plant; 0=no damage to plant); for pest or weed control at 62.5 g/ha: 62.5 g ai/ha, 100=total damage to plant, 0=no damage to plant, read-out: plant damage rating, Barnyardgrass; for pest or weed control at 250 g/ha: 250 g ai/ha, read-out: Barnyardgrass damage rating (100=total damage to plant; 0=no damage to plant)
In short: as §1

[5] = tested on: ivy-leaved morning glory (Ipomoea hederacea); assay: Test G Pre-Emergence Protocol; settings: Ipomoea, pre-emergence, 312 h, evaluated after 13 days; for pest or weed control at 15.625 g/ha: 15.625 g ai/ha, read-out: Morning-glory, Ivy-leaved damage rating (100=total damage to plant; 0=no damage to plant); for pest or weed control at 62.5 g/ha: 62.5 g ai/ha, 100=total damage to plant, 0=no damage to plant, read-out: plant damage rating, Morningglory, Ivy-leaved; for pest or weed control at 250 g/ha: 250 g ai/ha, read-out: Morningglory, Ivy-leaved damage rating (100=total damage to plant; 0=no damage to plant)
In short: as §1

[6] = tested on: velvetleaf (Abutilon theophrasti); assay: Test G Pre-Emergence Protocol; settings: Abutilon theophrasti, pre-emergence, 312 h, evaluated after 13 days; for pest or weed control at 15.625 g/ha: 15.625 g ai/ha; for pest or weed control at 15.625 g/ha / pest or weed control at 250 g/ha: read-out: Velvetleaf damage rating (100=total damage to plant; 0=no damage to plant); for pest or weed control at 62.5 g/ha: 62.5 g ai/ha, 100=total damage to plant, 0=no damage to plant, read-out: plant damage rating, Velvetleaf; for pest or weed control at 250 g/ha: 250 g ai/ha
In short: as §1

[7] = tested on: redroot pigweed (Amaranthus retroflexus); assay: Test G Post-Emergence Protocol; settings: Amaranthus retroflexus, post-emergence, 312 h; for pest or weed control at 15.625 g/ha: 15.625 g ai/ha, evaluated after 13 days (100=total damage to plant; 0=no damage to plant), read-out: Pigweed, Redroot damage rating; for pest or weed control at 62.5 g/ha: 62.5 g ai/ha, read-out: Pigweed, Redroot damage rating (100=total damage to plant; 0=no damage to plant); for pest or weed control at 62.5 g/ha / pest or weed control at 250 g/ha: evaluated after 13 days; for pest or weed control at 250 g/ha: 250 g ai/ha, read-out: damage to plant, Pigweed, Redroot (100=total damage to plant; 0=no damage to plant)
In short: (§2)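 Post-emergence herbicidal damage, scored visually 0–100 at 13 days. Application at 15.625, 62.5 or 250 g/ha onto 8-day-old plants grown under glasshouse control.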

corn (Zea mays) [8] = assay: Test G Post-Emergence Protocol; settings: Zea mays, post-emergence, 312 h; for plant injury at 15.625 g/ha: 15.625 g ai/ha, evaluated after 13 days (100=total damage to plant; 0=no damage to plant), read-out: Corn damage rating; for plant injury at 62.5 g/ha: 62.5 g ai/ha, read-out: Corn damage rating (100=total damage to plant; 0=no damage to plant); for plant injury at 62.5 g/ha / plant injury at 250 g/ha: evaluated after 13 days; for plant injury at 250 g/ha: 250 g ai/ha, read-out: damage to plant, Corn (100=total damage to plant; 0=no damage to plant)
In short: as §2

[9] = tested on: giant foxtail (Setaria faberi); assay: Test G Post-Emergence Protocol; settings: Setaria faberi, post-emergence, 312 h; for pest or weed control at 15.625 g/ha: 15.625 g ai/ha, evaluated after 13 days (100=total damage to plant; 0=no damage to plant), read-out: Foxtail, Giant damage rating; for pest or weed control at 62.5 g/ha: 62.5 g ai/ha, read-out: Foxtail, Giant damage rating (100=total damage to plant; 0=no damage to plant); for pest or weed control at 62.5 g/ha / pest or weed control at 250 g/ha: evaluated after 13 days; for pest or weed control at 250 g/ha: 250 g ai/ha, read-out: damage to plant, Foxtail, Giant (100=total damage to plant; 0=no damage to plant)
In short: as §2

[10] = tested on: barnyardgrass (Echinochloa crus-galli); assay: Test G Post-Emergence Protocol; settings: Echinochloa crus-galli, post-emergence, 312 h; for pest or weed control at 15.625 g/ha: 15.625 g ai/ha, evaluated after 13 days (100=total damage to plant; 0=no damage to plant), read-out: Barnyardgrass damage rating; for pest or weed control at 62.5 g/ha: 62.5 g ai/ha, read-out: Barnyardgrass damage rating (100=total damage to plant; 0=no damage to plant); for pest or weed control at 62.5 g/ha / pest or weed control at 250 g/ha: evaluated after 13 days; for pest or weed control at 250 g/ha: 250 g ai/ha, read-out: damage to plant, Barnyardgrass (100=total damage to plant; 0=no damage to plant)
In short: as §2

[11] = tested on: ivy-leaved morning glory (Ipomoea hederacea); assay: Test G Post-Emergence Protocol; settings: Ipomoea, post-emergence, 312 h; for pest or weed control at 15.625 g/ha: 15.625 g ai/ha, evaluated after 13 days (100=total damage to plant; 0=no damage to plant), read-out: Morningglory, Ivy-leaved damage rating; for pest or weed control at 62.5 g/ha: 62.5 g ai/ha, read-out: Morningglory, Ivy-leaved damage rating (100=total damage to plant; 0=no damage to plant); for pest or weed control at 62.5 g/ha / pest or weed control at 250 g/ha: evaluated after 13 days; for pest or weed control at 250 g/ha: 250 g ai/ha, read-out: damage to plant, Morningglory, Ivy-leaved (100=total damage to plant; 0=no damage to plant)
In short: as §2

[12] = tested on: velvetleaf (Abutilon theophrasti); assay: Test G Post-Emergence Protocol; settings: Abutilon theophrasti, post-emergence, 312 h; for pest or weed control at 15.625 g/ha: 15.625 g ai/ha, evaluated after 13 days (100=total damage to plant; 0=no damage to plant), read-out: Velvetleaf damage rating; for pest or weed control at 62.5 g/ha: 62.5 g ai/ha, read-out: Velvetleaf damage rating (100=total damage to plant; 0=no damage to plant); for pest or weed control at 62.5 g/ha / pest or weed control at 250 g/ha: evaluated after 13 days; for pest or weed control at 250 g/ha: 250 g ai/ha, read-out: damage to plant, Velvetleaf (100=total damage to plant; 0=no damage to plant)
In short: as §2

| Compound | pest or weed control at 15.625 g/ha [1] [%] | pest or weed control at 62.5 g/ha [1] [%] | pest or weed control at 250 g/ha [1] [%] | plant injury at 15.625 g/ha (corn (Zea mays) [2]) [%] | plant injury at 62.5 g/ha (corn (Zea mays) [2]) [%] | plant injury at 250 g/ha (corn (Zea mays) [2]) [%] | pest or weed control at 15.625 g/ha [3] [%] | pest or weed control at 62.5 g/ha [3] [%] | pest or weed control at 250 g/ha [3] [%] | pest or weed control at 15.625 g/ha [4] [%] | pest or weed control at 62.5 g/ha [4] [%] | pest or weed control at 250 g/ha [4] [%] | pest or weed control at 15.625 g/ha [5] [%] | pest or weed control at 62.5 g/ha [5] [%] | pest or weed control at 250 g/ha [5] [%] | pest or weed control at 15.625 g/ha [6] [%] | pest or weed control at 62.5 g/ha [6] [%] | pest or weed control at 250 g/ha [6] [%] | pest or weed control at 15.625 g/ha [7] [%] | pest or weed control at 62.5 g/ha [7] [%] | other results |
| --- | --- | --- | --- | --- | --- | --- | --- | --- | --- | --- | --- | --- | --- | --- | --- | --- | --- | --- | --- | --- | --- |
| CSc1nc(N)cc(NC(=O)[C@@H]2C(=O)N(C)C[C@H]2c2ccc(C(F)(F)F)cc2)n1 (racemic) [Compound 1644] | 0 | 0 | 0 | 0 | 0 | 0 | 0 | 0 | 0 | 0 | 0 | 0 | 0 | 0 | 0 | 0 | 0 | 0 | 0 | 0 | pest or weed control at 250 g/ha [7]: 0%; plant injury at 15.625 g/ha (corn (Zea mays) [8]): 0%; plant injury at 62.5 g/ha (corn (Zea mays) [8]): 0%; plant injury at 250 g/ha (corn (Zea mays) [8]): 0%; pest or weed control at 15.625 g/ha [9]: 0%; pest or weed control at 62.5 g/ha [9]: 20%; pest or weed control at 250 g/ha [9]: 30%; pest or weed control at 15.625 g/ha [10]: 0%; pest or weed control at 62.5 g/ha [10]: 0%; pest or weed control at 250 g/ha [10]: 20%; pest or weed control at 15.625 g/ha [11]: 0%; pest or weed control at 62.5 g/ha [11]: 10%; pest or weed control at 250 g/ha [11]: 40%; pest or weed control at 15.625 g/ha [12]: 0%; pest or weed control at 62.5 g/ha [12]: 0%; pest or weed control at 250 g/ha [12]: 0% |
| CN1C[C@@H](c2cc(Cl)cc(C(F)(F)F)c2)[C@H](C(=O)Nc2ccccc2F)C1=O (racemic) [Compound 1414] | 0 | 0 | 0 | 0 | 20 | 50 | 60 | 80 | 80 | 20 | 70 | 80 | 0 | 0 | 20 | 0 | 0 | 0 | 10 | 0 | pest or weed control at 250 g/ha [7]: 30%; plant injury at 15.625 g/ha (corn (Zea mays) [8]): 20%; plant injury at 62.5 g/ha (corn (Zea mays) [8]): 50%; plant injury at 250 g/ha (corn (Zea mays) [8]): 80%; pest or weed control at 15.625 g/ha [9]: 70%; pest or weed control at 62.5 g/ha [9]: 70%; pest or weed control at 250 g/ha [9]: 80%; pest or weed control at 15.625 g/ha [10]: 50%; pest or weed control at 62.5 g/ha [10]: 50%; pest or weed control at 250 g/ha [10]: 60%; pest or weed control at 15.625 g/ha [11]: 0%; pest or weed control at 62.5 g/ha [11]: 30%; pest or weed control at 250 g/ha [11]: 30%; pest or weed control at 15.625 g/ha [12]: 0%; pest or weed control at 62.5 g/ha [12]: 0%; pest or weed control at 250 g/ha [12]: 0% |
